Test results taken from ChEMBL document CHEMBL4507268 (2021).

Experiments:
[1] = target: T1, Serine/threonine-protein kinase MAK (Homo sapiens) (UniProt P20794); settings: Compound concentration 1000.0 nM
T1 sequence (whole entry): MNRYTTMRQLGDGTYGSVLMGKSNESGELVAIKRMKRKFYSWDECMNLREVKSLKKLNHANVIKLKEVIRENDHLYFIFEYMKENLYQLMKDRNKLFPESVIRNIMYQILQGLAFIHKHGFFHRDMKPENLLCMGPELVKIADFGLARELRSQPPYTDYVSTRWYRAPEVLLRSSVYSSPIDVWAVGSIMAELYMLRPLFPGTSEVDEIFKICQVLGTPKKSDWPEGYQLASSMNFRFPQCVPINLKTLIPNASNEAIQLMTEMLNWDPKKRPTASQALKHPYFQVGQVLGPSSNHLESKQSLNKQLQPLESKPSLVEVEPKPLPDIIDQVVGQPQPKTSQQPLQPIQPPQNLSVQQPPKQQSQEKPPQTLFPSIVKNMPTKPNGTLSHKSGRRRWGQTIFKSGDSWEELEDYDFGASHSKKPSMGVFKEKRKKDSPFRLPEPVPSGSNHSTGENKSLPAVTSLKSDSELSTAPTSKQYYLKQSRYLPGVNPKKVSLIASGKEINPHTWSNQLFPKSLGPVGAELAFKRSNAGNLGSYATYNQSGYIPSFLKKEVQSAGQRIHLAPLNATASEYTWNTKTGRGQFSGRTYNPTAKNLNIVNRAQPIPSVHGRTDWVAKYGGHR

[2] = target: Mitogen-activated protein kinase kinase kinase 20 (Homo sapiens) (UniProt Q9NYL2); settings: Compound concentration 1000.0 nM
Chain of Mitogen-activated protein kinase kinase kinase 20 (Homo sapiens) (Q9NYL2 2-800 limits assumed): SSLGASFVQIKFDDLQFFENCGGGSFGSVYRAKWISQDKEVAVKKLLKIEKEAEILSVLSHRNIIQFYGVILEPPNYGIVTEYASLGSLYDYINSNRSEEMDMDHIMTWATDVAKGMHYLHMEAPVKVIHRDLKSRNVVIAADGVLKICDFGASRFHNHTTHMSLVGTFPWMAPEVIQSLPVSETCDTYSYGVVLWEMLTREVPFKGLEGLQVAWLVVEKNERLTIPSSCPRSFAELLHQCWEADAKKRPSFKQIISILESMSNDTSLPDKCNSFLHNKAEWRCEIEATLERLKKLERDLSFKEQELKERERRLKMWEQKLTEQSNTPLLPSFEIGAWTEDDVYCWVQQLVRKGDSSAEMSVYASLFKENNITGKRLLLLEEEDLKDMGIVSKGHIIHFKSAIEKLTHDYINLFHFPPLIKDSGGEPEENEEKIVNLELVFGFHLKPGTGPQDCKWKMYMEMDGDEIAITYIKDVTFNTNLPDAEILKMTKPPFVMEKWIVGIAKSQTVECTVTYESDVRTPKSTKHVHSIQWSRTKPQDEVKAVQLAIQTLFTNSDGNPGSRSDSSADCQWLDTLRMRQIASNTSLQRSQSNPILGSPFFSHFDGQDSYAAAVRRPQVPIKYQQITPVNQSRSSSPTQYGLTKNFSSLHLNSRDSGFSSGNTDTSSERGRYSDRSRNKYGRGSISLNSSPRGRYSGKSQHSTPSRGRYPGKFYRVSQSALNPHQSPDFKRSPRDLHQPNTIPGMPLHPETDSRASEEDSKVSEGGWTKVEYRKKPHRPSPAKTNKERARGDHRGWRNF

[3] = target: Tyrosine-protein kinase Lck (Homo sapiens) (UniProt P06239); settings: Compound concentration 1000.0 nM
Chain of Tyrosine-protein kinase Lck (Homo sapiens) (P06239 2-509 limits assumed): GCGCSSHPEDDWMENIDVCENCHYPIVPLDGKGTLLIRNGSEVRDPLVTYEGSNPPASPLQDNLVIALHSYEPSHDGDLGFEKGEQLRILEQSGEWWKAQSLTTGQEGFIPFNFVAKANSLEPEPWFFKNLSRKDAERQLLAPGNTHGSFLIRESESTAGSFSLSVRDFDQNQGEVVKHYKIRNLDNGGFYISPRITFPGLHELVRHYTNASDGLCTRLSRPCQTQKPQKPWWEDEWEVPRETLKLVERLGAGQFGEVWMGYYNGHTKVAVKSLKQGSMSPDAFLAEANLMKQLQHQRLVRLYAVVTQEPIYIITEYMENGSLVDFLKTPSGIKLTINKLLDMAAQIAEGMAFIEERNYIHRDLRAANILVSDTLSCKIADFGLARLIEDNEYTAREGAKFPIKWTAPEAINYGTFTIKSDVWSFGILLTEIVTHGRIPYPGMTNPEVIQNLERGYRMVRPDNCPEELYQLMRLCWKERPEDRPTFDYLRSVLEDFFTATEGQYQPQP

[4] = target: T2, MAP/microtubule affinity-regulating kinase 4 (Homo sapiens) (UniProt Q96L34); settings: Compound concentration 1000.0 nM
T2 sequence (whole entry): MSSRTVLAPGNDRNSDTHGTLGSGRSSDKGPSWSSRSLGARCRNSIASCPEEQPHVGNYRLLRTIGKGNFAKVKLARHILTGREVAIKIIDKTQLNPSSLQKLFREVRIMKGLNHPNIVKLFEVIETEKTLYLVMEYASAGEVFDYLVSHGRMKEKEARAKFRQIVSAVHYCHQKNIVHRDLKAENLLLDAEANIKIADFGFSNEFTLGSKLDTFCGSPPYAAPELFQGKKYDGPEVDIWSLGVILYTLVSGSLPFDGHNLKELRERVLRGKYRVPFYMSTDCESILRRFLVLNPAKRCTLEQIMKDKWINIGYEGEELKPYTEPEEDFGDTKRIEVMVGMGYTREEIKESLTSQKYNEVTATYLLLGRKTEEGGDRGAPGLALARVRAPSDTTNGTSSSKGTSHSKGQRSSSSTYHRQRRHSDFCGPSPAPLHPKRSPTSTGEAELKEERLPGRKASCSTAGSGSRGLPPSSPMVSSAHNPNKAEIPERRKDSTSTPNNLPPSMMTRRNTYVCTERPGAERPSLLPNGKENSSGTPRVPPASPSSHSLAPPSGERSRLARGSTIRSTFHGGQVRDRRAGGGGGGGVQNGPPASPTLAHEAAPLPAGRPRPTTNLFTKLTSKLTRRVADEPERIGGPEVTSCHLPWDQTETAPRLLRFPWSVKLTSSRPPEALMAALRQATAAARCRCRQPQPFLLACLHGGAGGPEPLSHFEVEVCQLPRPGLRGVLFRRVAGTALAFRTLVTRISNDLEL

[5] = target: T3, G protein-coupled receptor kinase 3 (Homo sapiens) (UniProt P35626); settings: Compound concentration 1000.0 nM
T3 sequence (whole entry): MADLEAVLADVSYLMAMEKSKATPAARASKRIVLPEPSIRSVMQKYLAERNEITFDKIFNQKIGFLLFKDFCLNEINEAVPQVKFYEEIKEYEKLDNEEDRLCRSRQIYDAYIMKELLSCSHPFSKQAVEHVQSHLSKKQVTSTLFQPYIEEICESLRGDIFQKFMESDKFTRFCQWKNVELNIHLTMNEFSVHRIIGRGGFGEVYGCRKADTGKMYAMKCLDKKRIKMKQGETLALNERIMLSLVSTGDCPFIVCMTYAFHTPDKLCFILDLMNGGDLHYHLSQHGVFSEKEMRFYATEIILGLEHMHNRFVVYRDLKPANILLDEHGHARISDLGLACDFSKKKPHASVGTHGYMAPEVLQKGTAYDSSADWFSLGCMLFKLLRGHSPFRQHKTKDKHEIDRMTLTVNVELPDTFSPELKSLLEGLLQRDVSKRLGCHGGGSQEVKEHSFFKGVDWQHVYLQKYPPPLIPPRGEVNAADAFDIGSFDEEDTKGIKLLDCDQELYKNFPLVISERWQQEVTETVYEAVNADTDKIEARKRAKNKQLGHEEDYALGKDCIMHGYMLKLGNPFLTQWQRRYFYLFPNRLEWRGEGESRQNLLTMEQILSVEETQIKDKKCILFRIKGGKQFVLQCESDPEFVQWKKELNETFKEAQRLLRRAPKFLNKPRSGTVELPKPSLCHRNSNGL

[6] = target: T4, Mitogen-activated protein kinase kinase kinase 7 (Homo sapiens) (UniProt O43318); settings: Compound concentration 1000.0 nM
T4 sequence (whole entry): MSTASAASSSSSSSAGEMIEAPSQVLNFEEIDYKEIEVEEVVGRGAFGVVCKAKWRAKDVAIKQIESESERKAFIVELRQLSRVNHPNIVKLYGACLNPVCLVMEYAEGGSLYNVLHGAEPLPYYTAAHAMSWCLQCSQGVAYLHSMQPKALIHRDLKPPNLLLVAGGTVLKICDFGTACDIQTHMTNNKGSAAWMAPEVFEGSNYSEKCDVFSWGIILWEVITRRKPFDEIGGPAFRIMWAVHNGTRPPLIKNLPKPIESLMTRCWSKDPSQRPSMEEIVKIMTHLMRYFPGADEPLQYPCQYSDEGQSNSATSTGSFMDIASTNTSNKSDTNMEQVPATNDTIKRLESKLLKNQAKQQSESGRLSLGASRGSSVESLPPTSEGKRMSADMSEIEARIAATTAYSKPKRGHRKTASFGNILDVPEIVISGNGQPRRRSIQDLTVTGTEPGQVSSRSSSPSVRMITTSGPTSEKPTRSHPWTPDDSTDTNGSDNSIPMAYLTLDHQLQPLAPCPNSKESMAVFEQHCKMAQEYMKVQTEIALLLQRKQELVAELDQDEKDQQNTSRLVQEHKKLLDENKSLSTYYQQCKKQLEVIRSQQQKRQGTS

[7] = target: 5-hydroxytryptamine receptor 5A (Homo sapiens) (UniProt P47898); settings: Compound concentration 10.0 uM
Chain of 5-hydroxytryptamine receptor 5A (Homo sapiens) (P47898 whole entry): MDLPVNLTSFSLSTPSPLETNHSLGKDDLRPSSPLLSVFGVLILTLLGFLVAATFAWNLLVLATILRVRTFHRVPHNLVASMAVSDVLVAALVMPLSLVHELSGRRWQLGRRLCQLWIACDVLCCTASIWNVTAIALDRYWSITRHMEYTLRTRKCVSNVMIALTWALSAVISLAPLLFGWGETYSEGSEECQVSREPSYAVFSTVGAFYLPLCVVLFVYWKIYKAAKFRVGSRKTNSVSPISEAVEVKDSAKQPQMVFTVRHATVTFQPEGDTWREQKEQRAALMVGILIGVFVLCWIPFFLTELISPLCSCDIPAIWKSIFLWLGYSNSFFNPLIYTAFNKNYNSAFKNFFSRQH

Cc1nc(C2CCN(C(=O)c3ccc(OC(F)(F)F)cc3N)CC2)c2ncc(N3CCN(C)CC3)cc2n1 [BAY-693]
inactive: residual activity [1] 99% | residual activity [2] 95% | residual activity [3] 100% | residual activity [4] 100% | residual activity [5] 93% | residual activity [6] 100% | inhibition [7] -3.74%

CN1CCN(c2cnc3c(C4CCN(C(=O)c5ccc(OC(F)(F)F)cc5N)CC4)ncnc3c2)CC1 [BAY-885]
inactive: residual activity [1] 100% | residual activity [2] 98% | residual activity [3] 100% | residual activity [4] 100% | residual activity [5] 89% | residual activity [6] 100% | inhibition [7] -1.47%
